Patent publication US20240208961A1, “EIF4E INHIBITORS AND USES THEREOF” (PIC Therapeutics, Inc., priority 2022, published 2024)
“And” between values parts separate entries of the source, which are not always exact repeats. Equal entries are not always repeated. Where two headings read alike, the source gives them in different places.

Assays:
[1] = system: ZR-75-1; assay: Cell viability assay, adherent cell line, 5 day Alamar Blue (Example 8): ZR-75-1; type: cell-based; conditions: Homo sapiens, 120 h, ZR-75-1, Breast Cancer Cell Viability
Procedure: Cell viability assays were performed on certain compounds of the disclosure, according to the following procedure.
Cell line specific media conditions used:
The procedure for adherent cell line compound screening was as follows:
• Cells were seeded in 96-well cell culture treated tissue culture plates: ZR-75-1, NIHOVCAR3, T47D, and LOVO cells 4000 cells/well; and HPAFII 3000 cell/well
Day 3: Compound Dilution and Dosing
• 5-fold serial dilution (8 point) of each compound in DMSO 0-25 mM in compound storage plates was prepared (stored at −80° C. if not to be used immediately). • Cells were rinsed with 1% FBS Media (appropriate to cell line as described above) and replaced with 87.5 μL media prior to dosing. HPAFII was screened in normal 10% FBS Media. • DMSO compound dilution series was diluted in 1% FBS media (appropriate to cell line as described above)—2 μL in 248 μL to give an 8× final concentration. • Cells were dosed 12.5 μL/well in triplicate to give final dose curved on cells 0-25 μM. • Media blank 100 μL/well×8 was set up. • All plates were incubated at 37° C.
Day 8: 5 Day Viability Assay
• Alamar Blue viability reagent was added (10 μL per well) and incubated for 3 hours at 37° C. prior to fluorescence detection (Ex560 nm/Em590 nm) on a Varioskan Lux multimode plate reader.
Results from cell viability assays are summarized in Table 23, wherein A represents IC50≤1 μM; B represents 1 μM<IC50≤8 μM; and C represents IC50>8 μM. Blank cells indicate that the compound was not tested in a particular assay.

[2] = Pharmacokinetic studies of certain compounds in female Balb/c mice (Example 5); type: in vivo; conditions: I-1 PO 30 mg/kg
Procedure: Pharmacokinetic studies were performed using Balb/c mice, 15-20 g, 6-9 weeks, female, N=9, purchased from Jihui Laboratory Animal Co. LTD. For compound I-29, Balb/c mice, 19-21 g, 9-11 weeks, female, N=9, were used. The mice were fasted overnight and fed at 4 h post dosing.
Animals were dosed via oral gavage (PO) or tail vein injection (IV) with compound. Sampling occurred at 0.083, 0.25, 0.5, 1, 2, 4, 8, and 24 h post dose (8 time points). The animals were restrained manually at the designated time points. Approx. […] of blood was taken from the animals via facial vein for semi-serial bleeding into tubes with K2EDTA. Blood samples were put on ice and centrifuged at 4° C. (2000 g, 5 min) to obtain plasma within 15 min after sample collection. Plasma samples were stored in dry ice temporarily and at approximately −70° C. until analysis.
For oral gavage, the compound was dosed as a suspension in 1% sodium carboxymethyl cellulose (CMC) and 0.2% Tween 80 in water. For 23.8 mg/kg and 30 mg/kg doses, 3 mg/mL was used; for 50 mg/kg doses, 5 mg/mL was used; and for 100 mg/kg doses, 10 mg/mL was used.
For IV administration, the compound was dosed as a solution in 5% DMSO, 5% Solutol HS15 and 90% saline. For 1 mg/kg and 1.48 mg/kg doses, 0.2 mg/mL was used.
Plasma samples were analyzed using LC-MS using a calibration curve of known concentrations.
The results of these studies are summarized in Tables 11-21 below and in FIGS. 2-8. […] BQL=below quantifiable limit for compound in female Balb/c mouse plasma samples. NA=not available. PK parameters were estimated by non-compartmental model using WinNonlin 8.2. If the adjusted rsq (linear regression coefficient of the concentration value on the terminal phase) was less than 0.9, T1/2 might not have been accurately estimated. F value was determined by the following equation: • If AUClast/AUCINF>80%:
F=(AUCINF-EX×DOSEIV)/(AUCINF-IV×DOSEEX)[…] • If AUClast/AUCINF<80% or AUCINF not available:
F=(AUClast-EX×DOSEIV)/(AUClast-IV×DOSEEX)*1000

[3] = 24 hr, BQL = below quantifiable limit of 1 ng/mL

Which IC50 [1] does the source give for `CC(C)Cc1sc(Nc2ncc(-c3cccs3)cc2C(=O)O)nc1C1=CCOCC1` [Compound I-1] here?
The IC50 was no more than 1 µM.

And the “Plasma concentration Individual” value ([2]; 0.083 hr, 30 mg/kg)?
The value was 0.0969 µg/mL and 0.0518 µg/mL and 0.106 µg/mL.

And the “Plasma concentration Individual” value ([2]; 0.25 hr, 30 mg/kg)?
Its value is 0.467 µg/mL and 0.432 µg/mL.

And the “Plasma concentration Individual” value ([2]; 0.5 hr, 30 mg/kg)?
The value was 0.464 µg/mL and 0.421 µg/mL.

What about the “Plasma concentration Individual” value ([2]; 1 hr, 30 mg/kg) of the same compound?
Its value is 0.592 µg/mL and 0.498 µg/mL.

And the “Plasma concentration Individual” value ([2]; 2 hr, 30 mg/kg)?
The value was 0.367 µg/mL and 0.222 µg/mL.

And the “Plasma concentration Individual” value ([2]; 4 hr, 30 mg/kg)?
The value was 0.13 µg/mL and 0.153 µg/mL.

What about the “Plasma concentration Individual” value ([2]; 8 hr, 30 mg/kg) of the same compound?
Its value is 0.0789 µg/mL and 0.00672 µg/mL and 0.0122 µg/mL.

What about the “Plasma concentration Individual” value [2, 3] of the same compound?
Its value is “BQL”.

And the “Plasma concentration Mean” value [2, 3]?
Its value is “BQL”.

And the concentration at 0.083 hr ([2]; female, Balb/c, mouse, plasma, po, 30 mg/kg, 0.083 hr, read-out: Plasma concentration Mean)?
The concentration at 0.083 hr was 0.0849 µg/mL.

And the concentration at 0.25 hr ([2]; female, Balb/c, mouse, plasma, po, 30 mg/kg, 0.25 hr, read-out: Plasma concentration Individual)?
Its concentration at 0.25 hr is 0.383 µg/mL.

And the concentration at 0.25 hr ([2]; female, Balb/c, mouse, plasma, po, 30 mg/kg, 0.25 hr, read-out: Plasma concentration Mean)?
The concentration at 0.25 hr was 0.427 µg/mL.

And the concentration at 0.5 h ([2]; female, Balb/c, mouse, plasma, po, 30 mg/kg, 0.5 hr, read-out: Plasma concentration Individual)?
The concentration at 0.5 h was 0.397 µg/mL.

What about the concentration at 0.5 h ([2]; female, Balb/c, mouse, plasma, po, 30 mg/kg, 0.5 hr, read-out: Plasma concentration Mean) of the same compound?
The concentration at 0.5 h was 0.427 µg/mL.

And the concentration at 1 h ([2]; female, Balb/c, mouse, plasma, po, 30 mg/kg, 1 hr, read-out: Plasma concentration Individual)?
Its concentration at 1 h is 0.32 µg/mL.

What about the concentration at 1 hr ([2]; female, Balb/c, mouse, plasma, po, 30 mg/kg, 1 hr, read-out: Plasma concentration Mean) of the same compound?
The concentration at 1 hr was 0.47 µg/mL.

And the concentration at 2 hr ([2]; female, Balb/c, mouse, plasma, po, 30 mg/kg, 2 hr, read-out: Plasma concentration Individual)?
The concentration at 2 hr was 0.376 µg/mL.

And the concentration at 2 hr ([2]; female, Balb/c, mouse, plasma, po, 30 mg/kg, 2 hr, read-out: Plasma concentration Mean)?
The concentration at 2 hr was 0.322 µg/mL.

What about the concentration at 4 hr ([2]; female, Balb/c, mouse, plasma, po, 30 mg/kg, 4 hr, read-out: Plasma concentration Individual) of the same compound?
Its concentration at 4 hr is 0.193 µg/mL.

What about the concentration at 4 hr ([2]; female, Balb/c, mouse, plasma, po, 30 mg/kg, 4 hr, read-out: Plasma concentration Mean) of the same compound?
Its concentration at 4 hr is 0.159 µg/mL.

What about the concentration at 8 hr ([2]; female, Balb/c, mouse, plasma, po, 30 mg/kg, 8 hr, read-out: Plasma concentration Mean) of the same compound?
The concentration at 8 hr was 0.0326 µg/mL.

What about the AUC(0-inf) ([2]; mouse, plasma) of the same compound?
Its AUC(0-inf) is 1.72 µg·h/mL.

And the AUC(0-t) ([2]; mouse, plasma)?
Its AUC(0-t) is 1.64 µg·h/mL.

And the Cmax ([2]; mouse, plasma)?
Its Cmax is 0.47 µg/mL.

What about the MRT inf ([2]; mouse, plasma) of the same compound?
The MRT inf was 2.76 h.

And the MRT last ([2]; mouse, plasma)?
The MRT last was 2.35 h.

What about the Tmax ([2]; mouse, plasma) of the same compound?
The Tmax was 1 h.

What about the half-life ([2]; mouse, plasma) of the same compound?
Its half-life is 1.81 h.

Which IC50 [1] does the source give for `CC(C)Cc1sc(Nc2ncc(-c3cccs3)cc2C(=O)O)nc1C(C)(C)C` [Compound I-11] here?
The IC50 was no more than 1 µM.
